Measurements published in patent publication US6743795B1, “3-nitropyridine derivaives and the pharmaceutical compositions containing said derivatives” (Dong Wha Pharm. Ind. Co. Ltd., priority 1999, dated 2004).

Tests used:
HBV polymerase = molecular target: T1, HBV polymerase (Hepatitis B virus genotype A2 subtype adw2, UniProt P03159); test: In vitro reverse transcription activity of HBV polymerase (ELISA-type, DIG/biotin nucleotides); assay type: biochemical; settings: for inhibition at 0.01 µg/mL / inhibition at 0.1 µg/mL / inhibition at 1 µg/mL: read-out: Inhibition activity on HBV-RT (%)
T1 construct: made in house; host or cells: E. coli
T1 sequence (P03159 whole entry): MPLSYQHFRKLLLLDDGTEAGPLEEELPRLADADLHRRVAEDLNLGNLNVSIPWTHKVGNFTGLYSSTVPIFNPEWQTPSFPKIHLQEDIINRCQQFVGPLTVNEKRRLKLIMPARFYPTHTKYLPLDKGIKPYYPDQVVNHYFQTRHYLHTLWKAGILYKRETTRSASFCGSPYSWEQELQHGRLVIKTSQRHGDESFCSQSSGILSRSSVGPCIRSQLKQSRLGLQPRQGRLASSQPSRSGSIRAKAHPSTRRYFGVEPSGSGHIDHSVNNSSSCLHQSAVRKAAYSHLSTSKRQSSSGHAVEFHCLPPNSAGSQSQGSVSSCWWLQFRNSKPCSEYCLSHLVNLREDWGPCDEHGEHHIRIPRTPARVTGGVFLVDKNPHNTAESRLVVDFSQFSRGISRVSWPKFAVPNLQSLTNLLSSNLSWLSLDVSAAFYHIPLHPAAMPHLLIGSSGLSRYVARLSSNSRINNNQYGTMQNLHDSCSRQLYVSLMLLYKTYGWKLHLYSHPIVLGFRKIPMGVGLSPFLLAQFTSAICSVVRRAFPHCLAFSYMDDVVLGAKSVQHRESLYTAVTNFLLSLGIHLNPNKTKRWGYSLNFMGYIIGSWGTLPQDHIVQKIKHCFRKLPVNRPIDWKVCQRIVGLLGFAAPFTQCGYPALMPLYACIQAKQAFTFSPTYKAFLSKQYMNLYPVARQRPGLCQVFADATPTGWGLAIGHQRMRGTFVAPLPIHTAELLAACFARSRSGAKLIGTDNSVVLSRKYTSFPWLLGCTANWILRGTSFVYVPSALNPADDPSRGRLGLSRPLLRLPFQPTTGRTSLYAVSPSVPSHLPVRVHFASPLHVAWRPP
Protocol: <Experiment 1> Inhibitory Effect on the In Vitro Activities of HBV Polymerase in Reverse Transcription
The following in vitro experiment was performed to determine the effect of the compounds of formula 1 on the activity of HBV polymerase during reverse transcription.
The present inventors submitted application for a patent concerning HBV polymerase genetically expressed in and separated from E.coli, the process of its preparation, and the method to measure the enzyme activities (KR 94-3918, KR 96-33998). In the present experiments HBV polymerase was used which had been expressed in E. coli as stated above.
The method used in the present invention to measure in vitro reverse transcribing activities of HBV polymerase is as follows. Basic principles are the same as for ELISA. Nucleotides with biotin or digoxigenin group attached are included as substrates and anti-DIG antibodies attached to peroxidase enzyme recognize the polymerized substrates.
To the wells coated with streptavidin, 20 μl of HBV polymerase, 20 μl of reaction mixture (10 μM each of DIG-UTP and Biotin-UTP, 46 mM Tris-HCl, 266 mM KCl, 27.5 mM MgCl2, 9.2 mM DTT substrate/primer nybrid), and 20 μl of test compound (added to 1, 0.1, and 0.01 μg/ml) were added and allowed to react at 22° C. for 15 hrs. During this reaction, HBV polymerase catalyzes DNA synthesis and digoxigenin and biotin attached to nucleotides form bonds with streptavidin coated on the bottom of wells. When the reaction was done, each well was washed with 250 μl of cleaning buffer (pH 7.0) for 30 seconds, which was repeated five times to remove remaining impurities. 200 μl of anti-DIG-POD antibody was added to each well and allowed to react for 1 hr at 37° C., and the wells were washed with cleaning buffer to remove impurities. 200 μl each of ABTS™, a substrate of peroxidase, was then added and allowed to react at room temperature for 30 min. Absorbance was measured at 405 nm using ELISA reader.
The percentage of reduction in HBV polymerase activities for reverse transcription was calculated using the group without test compound as a control and the results are shown in Table 3.

[1] = molecular target: T2, HIV reverse transcriptase (Human immunodeficiency virus type 1 group M subtype B, UniProt P03366); test: In vitro HIV reverse transcriptase activity (non-radioactive RT assay kit); assay type: biochemical
T2 construct: purchased Boehringer Mannheim
Protocol: <Experiment 3> Inhibitory Effect on the In Vitro HIV Enzyme Activities in Reverse Transcription
The following in vitro experiments were done to determine the effect of compounds of formula 1 on the reduction of HIV enzyme activities in reverse transcription.
Non-radioactive reverse transcriptase assay kit (Boehringer Mannheim) was used in the measurement of in vitro transcriptase activities. 20 μl (40 ng) of HIV transcriptase and 20 μl of reaction mixture containing matrix-primer hybrid poly(A)oligo(dT)15, DIG(digoxigenin)-dUTP, biotin-dUTP, and TTP were added to wells coated with streptavidin. Test compounds were also added at the final concentrations of 0.1 and 1 μg/ml and allowed to react at 37° C. for 1 hr. At this time, DNA is formed from RNA by the action of HIV reverse transcriptase, forming bonds with streptavidin coated on the bottom of wells because of digoxigenin and biotin moieties attached to nucleotides.
When the reaction was completed, each well was washed with 250 μl of cleaning buffer (pH7.0) for 30sec. five times to remove remaining impurities. 200 μl of anti-DIG-POD […] was added to each well, allowed to react at 37° C. for 1 hr and washed as above to remove impurities. 200 μl of ABTS™, a substrate for peroxidase, was added to each well and allowed to react at room temperature for 30 min. Absorbance at 405 nm was then read for each solution using ELISA reader and used for quantitative determination of inhibitory effect on the HIV transcriptase activities. The percentage of reduction in the activities of HIV reverse transcriptase was calculated using the group without test compound as control and the results are represented in Table 5.

HBV = test: Proliferation of HBV in HBV producing cell line HepG 2.2.15 (competitive PCR of culture supernatant); assay type: cell-based, Hepatitis B virus; settings: HepG 2.2.15, one week; for inhibition at 0.01 µg/mL / inhibition at 0.1 µg/mL / inhibition at 1 µg/mL: Hepatitis B virus, HepG2.2.15, 168 h, read-out: Inhibitory effect on the HBV proliferation: Inhibition activity on HBV-RT (%)
Protocol: <Experiment 2> Inhibitory Effect on the Proliferation of HBV in HBV Producing Cell Line
The following experiment was performed to determine inhibitory effects of compounds of formula 1 on the proliferation of HBV producing cell line.
To test for antiviral effect, replication and proliferation of HBV were measured in HepG 2.2.15, a human liver cancer cell line.
The cell concentration was adjusted to 1×10^5 cells/ml and 1 ml was added to each well of a 24-well cell culture plate, which was then kept in a culture box for 3-4 days at 37° C. under 5% CO2 until cells grew sufficiently, changing culture medium everyday. When the cells matured sufficiently, the test compounds were added to the final concentrations of 0.01, 0.1, and 1 μg/ml. One week after the addition of test compounds, the culture solution was centrifuged at 5,000 rpm for 10 min. 25 μl of supernatant was transferred to a new tube and 5 μl of lysis solution [0.54N NaOH, 0.06% NP40] was added to each tube. After keeping the tube at 37° C. for 1 hr, 30 μl of neutralizing solution [0.09N HCl 0.1MTris-HCl, pH7.4] was added as a reaction solution for competitive polymerase chain reaction (PCR).
PCR was performed using genetic sequence of HBV core protein as a matrix. PCR reaction was carried out by adding 1 unit of Taq polymerase enzyme to 25 pmol of each primer, 250 μM dNTP, 5 μl of PCR reaction solution [0.54N NaOH, 0. 06% NP40, 0.09N HCl, 0.1M Tris-HCl, pH 7.4].
DNA polymerized by PCR was electrophoresed on Agarose gel and quantitatively analyzed using an image analyzer (Gel Doc 1000, Bio-Rad) in order to evaluate the effect of compounds of the present invention on the reduction of HBV proliferation.
3TC (lamivudine) was used as a positive control at the same concentrations as those of the test compounds. The percentage of reduction in HBV proliferation was calculated using the group without test compound as a control and the results are represented in Table 4.

melting point	SMILES	inhibition at 0.01 µg/mL (HBV polymerase; 0.01 μg/ml test compound) [%]	inhibition at 0.1 µg/mL (HBV polymerase; 0.1 μg/ml test compound) [%]	inhibition at 1 µg/mL (HBV polymerase; 1 μg/ml test compound) [%]	Inhibitory effect on the activities of HIV reverse transcriptase: Inhibition activity on HIV-RT (%) ([1]; 0.1 μg/ml test compound)	Inhibitory effect on the activities of HIV reverse transcriptase: Inhibition activity on HIV-RT (%) ([1]; 1 μg/ml test compound)	Inhibition activity on HBV-RT (%) (HBV polymerase; 0.01 μg/ml test compound)	Inhibition activity on HBV-RT (%) (HBV polymerase; 0.1 μg/ml test compound)	Inhibition activity on HBV-RT (%) (HBV polymerase; 1 μg/ml test compound)	Inhibitory effect on the HBV proliferation: Inhibition activity on HBV-RT (%) (HBV; 0.1 μg/ml)	Inhibitory effect on the HBV proliferation: Inhibition activity on HBV-RT (%) (HBV; 1 μg/ml)	inhibition at 0.01 µg/mL (HBV; 0.01 μg/ml) [%]	inhibition at 0.1 µg/mL (HBV; 0.1 μg/ml) [%]	inhibition at 1 µg/mL (HBV; 1 μg/ml) [%]	Inhibitory effect on the HBV proliferation: Inhibition activity on HBV-RT (%) (HBV; 0.01 μg/ml)
> 270 °C	O=[N+]([O-])c1ccc(NN2CCOCC2)nc1Nc1ccc2[nH]ncc2c1 [Example 30, 2-(1H-5-indazolylamino)-6-(4-morpholinyl)amino-3-nitropyridine]	32	49	71	–	–	–	–	–	–	–	–	–	–	–
–	CNc1ccc([N+](=O)[O-])c(Nc2ccc3cn[nH]c3c2)n1 [Example 4, 2-(1H-6-indazolylamino)-6-methyl amino-3-nitropyridine]	–	–	–	51	70	26	51	60	40	58	–	–	–	–
–	O=[N+]([O-])c1ccc(NCc2ccncc2)nc1Nc1ccc2[nH]ncc2c1 [Example 21, 2-(1H-5-indazolylamino)-3-nitro-6-(4-pyridyl)methylaminopyridine]	45	65	94	39	72	–	–	–	–	–	33	50	90	–
253 °C (dec.)	CN1CCN(c2ccc([N+](=O)[O-])c(Nc3ccc4cn[nH]c4c3)n2)CC1 (hydrate or solvate) [Example 26, 2-(1H-6-indazolylamino)-6-(4-methyl-1-piperazinyl)-3-nitropyridine]	–	–	–	–	–	–	–	–	–	–	–	–	–	–
260 °C (dec.)	CN1CCN(Nc2ccc([N+](=O)[O-])c(Nc3ccc4cn[nH]c4c3)n2)CC1 [Example 18, 2-(1H-6-indazolylamino)-6-(4-methyl-1-piperazinyl)amino-3-nitropyridine]	25	43	70	–	–	–	–	–	–	–	–	–	–	–
256 °C (dec.)	O=[N+]([O-])c1ccc(NCc2ccccn2)nc1Nc1ccc2cn[nH]c2c1 [Example 22, 2-(1H-6-indazolylamino)-3-nitro-6-(2-pyridyl)methylaminopyridine]	49	60	81	–	–	–	–	–	–	–	–	–	–	–
268 °C (dec.)	O=[N+]([O-])c1ccc(N2CCNCC2)nc1Nc1ccc2cn[nH]c2c1 [Example 24, 2-(1H-6-indazolylamino)-3-nitro-6-(1-piperazinyl)pyridine]	20	43	62	–	–	–	–	–	–	–	–	–	–	–
–	CC(C)CNc1ccc([N+](=O)[O-])c(Nc2ccc3[nH]ncc3c2)n1 [Example 7, 2-(1H-5-indazolylamino)-6-isobuthyl amino-3-nitropyridine]	–	–	–	45	72	47	80	95	75	93	–	–	–	30
–	CC(C)Nc1ccc([N+](=O)[O-])c(Nc2ccc3[nH]ncc3c2)n1 [Example 5, 2-(1H-5-indazolylamino)-6-isopropyl amino-3-nitropyridine]	–	–	–	20	55	53	87	96	81	94	–	–	–	41
–	COc1ccc([N+](=O)[O-])c(Nc2ccc3[nH]ncc3c2)n1 [Example 1, 2-(1H-5-indazolylamino)-6-methoxy-3-nitropyridine]	30	54	85	35	75	–	–	–	–	–	20	45	82	–

SMILES	melting point	inhibition at 0.01 µg/mL (HBV polymerase; 0.01 μg/ml test compound) [%]	inhibition at 0.1 µg/mL (HBV polymerase; 0.1 μg/ml test compound) [%]	inhibition at 1 µg/mL (HBV polymerase; 1 μg/ml test compound) [%]	Inhibitory effect on the activities of HIV reverse transcriptase: Inhibition activity on HIV-RT (%) ([1]; 0.1 μg/ml test compound)	Inhibitory effect on the activities of HIV reverse transcriptase: Inhibition activity on HIV-RT (%) ([1]; 1 μg/ml test compound)	Inhibition activity on HBV-RT (%) (HBV polymerase; 0.01 μg/ml test compound)	Inhibition activity on HBV-RT (%) (HBV polymerase; 0.1 μg/ml test compound)	Inhibition activity on HBV-RT (%) (HBV polymerase; 1 μg/ml test compound)	Inhibitory effect on the HBV proliferation: Inhibition activity on HBV-RT (%) (HBV; 0.1 μg/ml)	Inhibitory effect on the HBV proliferation: Inhibition activity on HBV-RT (%) (HBV; 1 μg/ml)	inhibition at 0.01 µg/mL (HBV; 0.01 μg/ml) [%]	inhibition at 0.1 µg/mL (HBV; 0.1 μg/ml) [%]	inhibition at 1 µg/mL (HBV; 1 μg/ml) [%]	Inhibitory effect on the HBV proliferation: Inhibition activity on HBV-RT (%) (HBV; 0.01 μg/ml)
O=[N+]([O-])c1ccc(NCc2cccnc2)nc1Nc1ccc2cn[nH]c2c1 [Example 20, 2-(1H-6-indazolylamino)-3-nitro-6-(3-pyridyl)methylaminopyridine]	> 270 °C	21	40	66	53	84	–	–	–	–	–	–	–	–	–
O=[N+]([O-])c1ccc(N2CCNCC2)nc1Nc1ccc2[nH]ncc2c1 [Example 23, 2-(1H-5-indazolylamino)-3-nitro-6-(1-piperazinyl)pyridine]	270 °C (dec.)	51	66	96	–	–	–	–	–	–	–	35	55	92	–
